Converted amounts (≈) assume the structure as drawn. Where a SMILES comes first, the peptide text is derived from it. Where no end group is shown, it is not given here.
What was measured:
[1] = system: E. coli K88; test: microbe, parasite or virus in culture; format: cell-based; settings: agar diffusion; for Diameters of the inhibition zones, Trypsin-Untreated Group, K88: 200 μL fermentation supernatant, 1 × 10^5 CFU/mL, 4 °C 1 h then 37 °C 24 h, chloramphenicol 100 μL of 0.25 μg/mL; for Diameters of the inhibition zones, Trypsin-Untreated Group, K88 / Diameters of the inhibition zones, Trypsin-Treated Group, K88: dash = no zone; for antimicrobial activity after trypsin treatment, K88 / Diameters of the inhibition zones, Trypsin-Treated Group, K88: supernatant treated with trypsin 50 μg/mL, 37 °C, 3 h; for Diameters of the inhibition zones, Trypsin-Treated Group, K88: pH 6.8, 37 °C 24 h
Method: (§1) The pH was adjusted to 6.8.
(§2) The fermentation supernatants and pure products were used to characterize the bacteriostatic effects of McC variants by the agar diffusion and microdilution methods. Yej^+rimL^− and E. coli K88 indicator bacteria were applied. The serotype of E. coli K88 was O149:K91, K88ac, a clinically isolated strain, and provided by the College of Veterinary Medicine, China Agricultural University. The indicated bacteria were diluted to 1 × 10^5 CFU/mL and added to plate medium cooled to 50 °C. Two hundred microliters of supernatants were added to each dish, and diffusion was performed at 4 °C for 1 h. After incubation at 37 °C for 24 h, the diameters of the inhibition zones were determined. One hundred microliters of 0.25 μg/mL chloramphenicol was used as a control. The MICs of the pure McC variants were determined by microdilution in a sterilized 96-well microplate. The McC variants were serially diluted 2 times in 96-well microplates with LB medium. The concentrations of the McC variants ranged from 0.125 to 100 µg/mL. Each well was inoculated with 10 μL of overnight bacterial culture at a concentration of 1.0 × 10^5 CFU/mL and incubated at 37 °C for 24 h. A microplate reader was used to automatically observe changes in absorbance at 600 nm in order to monitor bacterial growth. A positive control group (including inoculated medium) and a negative control group (with medium only) were included. The MIC was determined as the lowest concentration of McC variant that inhibited bacterial growth (preventing an increase in the absorbance reading). All tests were performed in triplicate.

[2] = system: Yej^+rimL^− strain; test: organism not typed; format: cell-based; settings: agar diffusion; for Diameters of the inhibition zones, Trypsin-Untreated Group, Yej^+rimL^−: 200 μL fermentation supernatant, 1 × 10^5 CFU/mL, 4 °C 1 h then 37 °C 24 h, chloramphenicol 100 μL of 0.25 μg/mL; for Diameters of the inhibition zones, Trypsin-Untreated Group, Yej^+rimL^− / Diameters of the inhibition zones, Trypsin-Treated Group, Yej^+rimL^−: dash = no zone; for bacteriostatic activity after trypsin treatment, Yej^+rimL^− / Diameters of the inhibition zones, Trypsin-Treated Group, Yej^+rimL^−: supernatant treated with trypsin 50 μg/mL, 37 °C, 3 h; for Diameters of the inhibition zones, Trypsin-Treated Group, Yej^+rimL^−: pH 6.8, 37 °C 24 h
Excerpt: To analyze the antimicrobial ability of the variants, we measured the inhibition zones of all 21 variants by the agar diffusion method. The peptide moiety of McC was recognized by a YejABEf-peptide transporter. The rimL contains an acetyltransferase domain homologous to MccE which can detoxify and provide resistance to McC [17]. The overexpression of the YejABEF gene cluster and rimL gene knockout made the strain hypersensitive to McC. Therefore, the Yej^+rimL^− strain was selected as the sensitive indicator bacterial strain.
as §1, §2

[3] = HPLC retention time according to hydrophobicity; format: physicochemical; settings: chromatographic, C18 5 μm 9.4 × 250 mm; A 0.1% trichloroacetic acid, B 0.1% trichloroacetic acid with 90% acetonitrile; linear 5% B to 50% B; 1 mL/min; 35 °C; 280 nm; varies according to hydrophobicity
Method: To find the separation peaks of the variants, wildtype McC and blank control fermentation broth samples were tested by HPLC. The separation peaks with obvious differences (those with retention times of 11 min and 17 min) were purified and the antimicrobial activity was determined. […] Therefore, the molecular weight was further analyzed by mass spectrometry, and the separation peak at approximately 17 min was confirmed to be that of the desired purified McC. Since the mutations in this study involved only one amino acid and had few effects on the properties of the peptides, we predicted that the separation peaks of the variants should fluctuate around approximately 17 min according to their hydrophobicity. […] The purity of the purified variants was determined by HPLC to be greater than 80% (Table 3).
The lyophilized supernatants were dissolved in deionized water, filtered through 0.22 μm aqueous-phase filter membranes, and purified by high-performance liquid chromatography (HPLC, Agilent Technologies Inc., Palo Alto, CA, USA) with C18 column (5 μm 9.4 × 250 mm, Agilent Technologies Inc., Palo Alto, CA, USA). The mobile phase was composed of 0.1% (v/v) trichloroacetic acid (solvent A) and 0.1% (v/v) trichloroacetic acid with 90% (v/v) acetonitrile (solvent B). A linear gradient from 95% A/5% B to 50% A/50% B was used with a flow rate of 1 mL/min, a sample volume of 10 μL, a column temperature of 35 °C, and a detection wavelength of 280 nm. Electrospray ionization mass spectrometry (ESI-MS) was used to compare the McC variant masses with the expected masses. The relationships between the relative abundances and the mass-to-charge ratios (m/z) of the ions were determined to confirm the identities of the experimentally produced McC variants.

[4] = Remaining amount by RP-HPLC after chymotrypsin treatment; format: in vitro ADME; settings: isolated enzyme chymotrypsin; chymotrypsin treated for 3 h; read-out RP-HPLC; Table S2
Method: (§3) To test whether the variants were tolerant to trypsin or other digestive enzymes, the amount of the remaining McC and its analogues remaining was determined by RP-HPLC after trypsin, pepsin, and chymotrypsin treated for 3 h (Table S2), and the inhibition zones of trypsin-treated variants were tested using the same method (Table 2).

[5] = Remaining amount by RP-HPLC after pepsin treatment; format: in vitro ADME; settings: isolated enzyme pepsin; pepsin treated for 3 h; read-out RP-HPLC; Table S2
Method: as §3

[6] = system: Yej^+rimL^− strain; format: cell-based; settings: HPLC-purified variants; microdilution in LB, 96-well; 0.125 to 100 µg/mL; 1.0 × 10^5 CFU/mL; 37 °C 24 h; absorbance 600 nm; triplicate
Method: To accurately characterize the bacteriostatic abilities of the variants, the MICs of the pure McC variants toward the McCsensitive strain Yej^+rimL^− were determined. The MICs of all variants were lower than that of wild-type McC. From smallest to largest MIC, the above five variants were in the following order: R2A, R2T, R2Q, R2S, and R2H. […] Although the diameter of the inhibitory zone of R2M was smaller than those of the above five variants, the bacteriostatic ability of R2M was second only to R2T/R2Q, and the MIC was 50 μg/mL.
as §2

[7] = system: indicator bacteria; settings: second to seventh codons of mccA replaced; cited from earlier work
Excerpt: The heptapeptide precursor of McC, f-MRTGNAN, is encoded by the first gene in the mcc gene clusters, mccA [11]. Considering its protein nature, it is suitable for gene-based peptide engineering. Kazakov et al. first applied site-directed mutagenesis on the mccA gene, systematically replacing the second to seventh codons of mccA encoding 19 standard amino acids for a total of 114 mutations.

Row | Compound | Diameters of the inhibition zones, Trypsin-Untreated Group, K88 [1] [mm] | Diameters of the inhibition zones, Trypsin-Untreated Group, Yej^+rimL^− [2] [mm] | Retention Time [3] [min] | remaining at 3 h [4] [%] | remaining at 3 h [5] [%] | MIC [6] [mg/L] | antimicrobial activity after trypsin treatment, K88 [1] | Diameters of the inhibition zones, Trypsin-Treated Group, K88 [1] [mm] | bacteriostatic activity after trypsin treatment, Yej^+rimL^− [2] | Diameters of the inhibition zones, Trypsin-Treated Group, Yej^+rimL^− [2] [mm] | antimicrobial activity of mccA substitution variants [7]
1 | CSCC[C@H](NC=O)C(=O)N[C@@H](CCCNC(=N)N)C(=O)N[C@H](C(=O)NCC(=O)N[C@@H](CC(N)=O)C(=O)N[C@@H](C)C(=O)N[C@@H](CC(=O)O)C(=O)NP(=O)(OCCCN)OC[C@H]1O[C@@H](n2cnc3c(N)ncnc32)[C@H](O)[C@@H]1O)[C@@H](C)O (some centres unmarked) [McC, Microcin C7] (HELM PEPTIDE1{[O=C[*:2]].M.R.T.G.N.A.[NCCCOP(=O)(NC(=O)[C@H](CC(=O)O)N[*:1])OC[C@H]1O[C@@H](n2cnc3c(N)ncnc32)[C@H](O)[C@@H]1O]}$$$$V2.0) | 20.25 | 29.12 | 17.198 | 41.7 ± 1.07 | 89.3 ± 1.16 | 1.56 (≈ 1.33 µM) |  |  |  |  | 
2 | CSCC[C@H](NC=O)C(=O)N[C@@H](C)C(=O)N[C@H](C(=O)NCC(=O)N[C@@H](CC(N)=O)C(=O)N[C@@H](C)C(=O)N[C@@H](CC(=O)O)C(=O)NP(=O)(OCCCN)OC[C@H]1O[C@@H](n2cnc3c(N)ncnc32)[C@H](O)[C@@H]1O)[C@@H](C)O (some centres unmarked) [R2A] (HELM PEPTIDE1{[O=C[*:2]].M.A.T.G.N.A.[NCCCOP(=O)(NC(=O)[C@H](CC(=O)O)N[*:1])OC[C@H]1O[C@@H](n2cnc3c(N)ncnc32)[C@H](O)[C@@H]1O]}$$$$V2.0) | 16.53 | 21.82 | 17.167 | 42.2 ± 0.86 | 92.2 ± 1.04 | 12.5 (≈ 11.4 µM) | retained their antimicrobial activity | 11.96 | exhibited antibacterial effects | 19.07 | bacteriostatic
3 | CC[C@H](C)[C@H](NC(=O)[C@H](CCSC)NC=O)C(=O)N[C@H](C(=O)NCC(=O)N[C@@H](CC(N)=O)C(=O)N[C@@H](C)C(=O)N[C@@H](CC(=O)O)C(=O)NP(=O)(OCCCN)OC[C@H]1O[C@@H](n2cnc3c(N)ncnc32)[C@H](O)[C@@H]1O)[C@@H](C)O (some centres unmarked) [R2I] (HELM PEPTIDE1{[O=C[*:2]].M.I.T.G.N.A.[NCCCOP(=O)(NC(=O)[C@H](CC(=O)O)N[*:1])OC[C@H]1O[C@@H](n2cnc3c(N)ncnc32)[C@H](O)[C@@H]1O]}$$$$V2.0) | 10.18 | 18.36 | 18.166 | 41.3 ± 0.55 | 91.72 ± 0.87 | 100 (≈ 88.2 µM) |  |  | exhibited antibacterial effects | 15.67 | 
4 | CSCC[C@H](NC=O)C(=O)N[C@@H](CCC(N)=O)C(=O)N[C@H](C(=O)NCC(=O)N[C@@H](CC(N)=O)C(=O)N[C@@H](C)C(=O)N[C@@H](CC(=O)O)C(=O)NP(=O)(OCCCN)OC[C@H]1O[C@@H](n2cnc3c(N)ncnc32)[C@H](O)[C@@H]1O)[C@@H](C)O (some centres unmarked) [R2Q] (HELM PEPTIDE1{[O=C[*:2]].M.Q.T.G.N.A.[NCCCOP(=O)(NC(=O)[C@H](CC(=O)O)N[*:1])OC[C@H]1O[C@@H](n2cnc3c(N)ncnc32)[C@H](O)[C@@H]1O]}$$$$V2.0) | 21.67 | 19.45 | 16.910 | 49.6 ± 1.19 | 87.6 ± 1.23 | 25 (≈ 21.8 µM) | retained their antimicrobial activity | 14.56 | exhibited antibacterial effects | 19.38 | 
5 | CSCC[C@H](NC=O)C(=O)N[C@H](C(=O)N[C@H](C(=O)NCC(=O)N[C@@H](CC(N)=O)C(=O)N[C@@H](C)C(=O)N[C@@H](CC(=O)O)C(=O)NP(=O)(OCCCN)OC[C@H]1O[C@@H](n2cnc3c(N)ncnc32)[C@H](O)[C@@H]1O)[C@@H](C)O)[C@@H](C)O (some centres unmarked) [R2T] (HELM PEPTIDE1{[O=C[*:2]].M.T.T.G.N.A.[NCCCOP(=O)(NC(=O)[C@H](CC(=O)O)N[*:1])OC[C@H]1O[C@@H](n2cnc3c(N)ncnc32)[C@H](O)[C@@H]1O]}$$$$V2.0) | 15.27 | 21.74 | 17.418 | 46.7 ± 0.66 | 86.76 ± 0.77 | 25 (≈ 22.3 µM) | retained their antimicrobial activity | 11.68 | exhibited antibacterial effects | 17.23 | 
6 | A6F: McC substitution variant of Kazakov et al., site-directed mutagenesis of mccA (MRTGNFN; ends and bridges not checked; UniProt Q47505 1-7, looked up, variant A6F) [reference compound] |  |  |  |  |  |  |  |  |  |  | loss of antimicrobial activity
7 | A6M: McC substitution variant of Kazakov et al., site-directed mutagenesis of mccA (MRTGNMN; ends and bridges not checked; UniProt Q47505 1-7, looked up, variant A6M) [reference compound] |  |  |  |  |  |  |  |  |  |  | loss of antimicrobial activity
